{
  "source": "patent US20130245081A1",
  "about": "“Compositions and Methods for Treating Amyotrophic Lateral Sclerosis” (priority 2009, published 2013)",
  "test_system": "patients with ALS",
  "key": {"[1]": {"conditions": "300 mg, through the end of the study"}},
  "note": "Several values for one entry are separate records, joined by “and”; a condition that tells them apart may be missing. Equal entries are not always repeated. Where two headings read alike, the source gives them in different places. Marks after values point to notes of the source that are not given here.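 Note: adverse event data gathered at every clinic visit and phone contact, after first study drug dose, in a blinded trial, counts of affected subjects.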",
  "data": [
    {"smiles": "CCCN[C@@H]1CCc2nc(N)sc2C1", "note": "[dexpramipexole, (6R)-2-amino-4,5,6,7-tetrahydro-6-(propylamino)benzothiazole]", "values": [
      {"measurement": "TEAE: Cough", "setting": "300 mg, through Week 28", "value": "5 (11%) N (%)"},
      {"measurement": "TEAE: Dehydration", "setting": "300 mg, through Week 28", "value": "3 (7%) N (%)"},
      {"measurement": "TEAE: Depression", "setting": "300 mg, through Week 28", "value": "5 (11%) N (%)"},
      {"measurement": "TEAE: Dizziness", "setting": "300 mg, through Week 28", "value": "3 (7%) N (%)"},
      {"measurement": "TEAE: Dysarthria", "setting": "300 mg, through Week 28", "value": "5 (11%) N (%)"},
      {"measurement": "TEAE: Dysphagia", "setting": "300 mg, through Week 28", "value": "4 (9%) N (%)"},
      {"measurement": "TEAE: Dyspnoea", "setting": "300 mg, through Week 28", "value": "6 (14%) N (%)"},
      {"measurement": "TEAE: Fall", "setting": "300 mg, through Week 28", "value": "11 (25%) N (%)"},
      {"measurement": "TEAE: Fatigue", "setting": "300 mg, through Week 28", "value": "2 (5%)^a N (%) and 2 (5%) N (%)"},
      {"measurement": "TEAE: Gastrointestinal Disorders", "setting": "300 mg, through Week 28", "value": "25 (57%) N (%)"},
      {"measurement": "TEAE: General Disorders and Administration Site Conditions", "setting": "300 mg, through Week 28", "value": "12 (27%) N (%)"},
      {"measurement": "TEAE: Headache", "setting": "300 mg, through Week 28", "value": "6 (14%) N (%)"},
      {"measurement": "TEAE: Hyperglycaemia", "setting": "300 mg, through Week 28", "value": "3 (7%) N (%)"},
      {"measurement": "TEAE: Infections and Infestations", "setting": "300 mg, through Week 28", "value": "17 (39%) N (%)"},
      {"measurement": "TEAE: Injury, Poisoning and Procedural Complication", "setting": "300 mg, through Week 28", "value": "12 (27%) N (%)"},
      {"measurement": "TEAE: Metabolism and Nutrition Disorders", "setting": "300 mg, through Week 28", "value": "8 (18%) N (%)"},
      {"measurement": "TEAE: Muscle contractions involuntary", "setting": "300 mg, through Week 28", "value": "2 (5%)^a N (%) and 2 (5%) N (%)"},
      {"measurement": "TEAE: Muscle spasticity", "setting": "300 mg, through Week 28", "value": "1 (2%) N (%)"},
      {"measurement": "TEAE: Musculoskeletal and Connective Tissue Disorders", "setting": "300 mg, through Week 28", "value": "19 (43%) N (%)"},
      {"measurement": "TEAE: Musculoskeletal pain", "setting": "300 mg, through Week 28", "value": "3 (7%) N (%)"},
      {"measurement": "TEAE: Nausea", "setting": "300 mg, through Week 28", "value": "3 (7%) N (%)"},
      {"measurement": "TEAE: Neck pain", "setting": "300 mg, through Week 28", "value": "4 (9%) N (%)"},
      {"measurement": "TEAE: Nervous System Disorders", "setting": "300 mg, through Week 28", "value": "18 (41%) N (%)"},
      {"measurement": "TEAE: Oedema peripheral", "setting": "300 mg, through Week 28", "value": "2 N (%) and 1 (2%) N (%)"},
      {"measurement": "TEAE: Pharyngolaryngeal pain", "setting": "300 mg, through Week 28", "value": "3 (7%) N (%)"},
      {"measurement": "TEAE: Pneumonia", "setting": "300 mg, through Week 28", "value": "1 (2%) N (%)"},
      {"measurement": "TEAE: Pruritus", "setting": "300 mg, through Week 28", "value": "0 N (%)"},
      {"measurement": "TEAE: Psychiatric Disorders", "setting": "300 mg, through Week 28", "value": "14 (32%) N (%)"},
      {"measurement": "TEAE: Rash", "setting": "300 mg, through Week 28", "value": "3 (7%) N (%)"},
      {"measurement": "TEAE: Respiratory failure", "setting": "300 mg, through Week 28", "value": "1 (2%) N (%)"},
      {"measurement": "TEAE: Respiratory, Thoracic and Mediastinal Disorders", "setting": "300 mg, through Week 28", "value": "18 (41%) N (%)"},
      {"measurement": "TEAE: Salivary hypersecretion", "setting": "300 mg, through Week 28", "value": "5 (11%) N (%)"},
      {"measurement": "TEAE: Sinusitis", "setting": "300 mg, through Week 28", "value": "5 (11%) N (%)"},
      {"measurement": "TEAE: Skin and Subcutaneous Tissue Disorders", "setting": "300 mg, through Week 28", "value": "8 (18%) N (%)"},
      {"measurement": "TEAE: Tachycardia", "setting": "300 mg, through Week 28", "value": "4 (9%) N (%)"},
      {"measurement": "TEAE: Upper respiratory tract infection", "setting": "300 mg, through Week 28", "value": "3 (7%) N (%)"},
      {"measurement": "TEAE: Urinary tract infection", "setting": "300 mg, through Week 28", "value": "4 (9%) N (%)"},
      {"measurement": "TEAE: Vomiting", "setting": "300 mg, through Week 28", "value": "0 N (%)"},
      {"measurement": "serious TEAE: Acute myocardial infarction", "setting": "300 mg, through Week 28", "value": "0 N (%)"},
      {"measurement": "serious TEAE: Atrial fibrillation", "setting": "300 mg, through Week 28", "value": "1 (2%) N (%)"},
      {"measurement": "serious TEAE: Blood and Lymphatic System Disorders", "setting": "300 mg, through Week 28", "value": "1 (2%) N (%)"},
      {"measurement": "serious TEAE: Cardiac Disorders", "setting": "300 mg, through Week 28", "value": "1 (2%) N (%)"},
      {"measurement": "serious TEAE: Cardiac failure congestive", "setting": "300 mg, through Week 28", "value": "0 N (%)"},
      {"measurement": "serious TEAE: Cholecystitis acute", "setting": "300 mg, through Week 28", "value": "1 (2%) N (%)"},
      {"measurement": "serious TEAE: Concussion", "setting": "300 mg, through Week 28", "value": "1 (2%) N (%)"},
      {"measurement": "serious TEAE: Disease progression", "setting": "300 mg, through Week 28", "value": "0 N (%)"},
      {"measurement": "serious TEAE: Dyspnoea", "setting": "300 mg, through Week 28", "value": "0 N (%)"},
      {"measurement": "serious TEAE: Fall", "setting": "300 mg, through Week 28", "value": "1 (2%) N (%)"},
      {"measurement": "serious TEAE: Gastrointestinal Disorders", "setting": "300 mg, through Week 28", "value": "0 N (%)"},
      {"measurement": "serious TEAE: General Disorders and Administration Site Conditions", "setting": "300 mg, through Week 28", "value": "0 N (%)"},
      {"measurement": "serious TEAE: Hepatobiliary Disorders", "setting": "300 mg, through Week 28", "value": "1 (2%) N (%)"},
      {"measurement": "serious TEAE: Ileus", "setting": "300 mg, through Week 28", "value": "0 N (%)"},
      {"measurement": "serious TEAE: Infections and Infestations", "setting": "300 mg, through Week 28", "value": "1 (2%) N (%)"},
      {"measurement": "serious TEAE: Injury, Poisoning and Procedural Complications", "setting": "300 mg, through Week 28", "value": "1 (2%) N (%)"},
      {"measurement": "serious TEAE: Neutropenia", "setting": "300 mg, through Week 28", "value": "1 (2%) N (%)"},
      {"measurement": "serious TEAE: Pneumonia", "setting": "300 mg, through Week 28", "value": "1 (2%) N (%)"},
      {"measurement": "serious TEAE: Pneumonia aspiration", "setting": "300 mg, through Week 28", "value": "1 (2%) N (%)"},
      {"measurement": "serious TEAE: Pneumonia bacterial", "setting": "300 mg, through Week 28", "value": "0 N (%)"},
      {"measurement": "serious TEAE: Pulmonary embolism", "setting": "300 mg, through Week 28", "value": "0 N (%)"},
      {"measurement": "serious TEAE: Respiratory distress", "setting": "300 mg, through Week 28", "value": "0 N (%)"},
      {"measurement": "serious TEAE: Respiratory failure", "setting": "300 mg, through Week 28", "value": "1 (2%) N (%)"},
      {"measurement": "serious TEAE: Respiratory, Thoracic and Mediastinal Disorders", "setting": "300 mg, through Week 28", "value": "2 (5%) N (%)"},
      {"measurement": "serious TEAE: Subdural haematoma", "setting": "300 mg, through Week 28", "value": "1 (2%) N (%)"},
      {"measurement": "serious TEAE: Sudden death", "setting": "300 mg, through Week 28", "value": "0 N (%)"},
      {"measurement": "serious TEAE: Viral infection", "setting": "300 mg, through Week 28", "value": "0 N (%)"},
      {"measurement": "≧1 TEAE with an outcome of death", "setting": "300 mg, through Week 28", "value": "1 N (%) and 1 (2%) N (%)"},
      {"measurement": "≧1 serious TEAE (including death)", "setting": "300 mg, through Week 28", "value": "5 N (%) and 5 (11%) N (%)"},
      {"measurement": "≧1 serious treatment-related TEAE", "setting": "300 mg, through Week 28", "value": "1 (2%) N (%)"},
      {"measurement": "≧1 severe TEAE", "setting": "300 mg, through Week 28", "value": "6 (14%) N (%) and 6 N (%)"},
      {"measurement": "Number of TEAEs", "setting": "[1]", "value": 366},
      {"measurement": "Number of serious TEAEs", "setting": "[1]", "value": 17},
      {"measurement": "Number of serious treatment-related TEAEs", "setting": "[1]", "value": 2},
      {"measurement": "Number of severe TEAEs", "setting": "[1]", "value": 23},
      {"measurement": "Number of treatment-related TEAEs", "setting": "[1]", "value": 61},
      {"measurement": "Subjects with a TEAE with action taken of study drug discontinued", "setting": "[1]", "value": "3 N (%) and 3 (7%) N (%)"},
      {"measurement": "subjects with TEAEs with an outcome of death (b230 count)", "setting": "[1]", "value": 5, "unit": "subjects"},
      {"measurement": "≧1 TEAE with an outcome of death", "setting": "[1]", "value": "4 N (%) and 4 (9%) N (%)"},
      {"measurement": "≧1 serious TEAE (including death)", "setting": "[1]", "value": "11 N (%) and 11 (25%) N (%)"},
      {"measurement": "≧1 serious treatment-related TEAE", "setting": "[1]", "value": "2 (5%) N (%)"},
      {"measurement": "≧1 severe TEAE", "setting": "[1]", "value": "13 N (%) and 13 (30%) N (%)"},
      {"measurement": "≧1 treatment-related TEAE", "setting": "[1]", "value": "18 (41%) N (%)"},
      {"measurement": "safety and tolerability", "setting": "total daily doses of 50 mg and 300 mg, ALS subjects", "value": "safe and well tolerated"}
    ]}
  ]
}
